Measurements: patent US5968910A, “Compositions containing two or three inhibitors of different HIV reverse transcriptases” (priority 1994, dated 1999)

Test system: HIV-1
Experiment: Breakthrough of mutant HIV-1 strains in CEM cell cultures, single drugs and double/triple combinations
Format: cell-based
Method: The culture medium consisted of RPMI 1640 containing 10% fetal bovine serum, 2 mM L-glutamine, and 0.075% NaHCO3. The multiplicity of the initial infection was ~1000 times the CCID50 (50% cell culture infective dose). Passages were performed every 3 to 4 days by adding 0.5 to 1.0 ml of the infected culture supernatant to 5 ml of a suspension containing 4×10^5 uninfected CEM cells per ml. Syncytium formation was used as a parameter of virus breakthrough in the cell cultures. In the drug combination experiments, the compounds were combined at the same initial concentrations as used for the two lowest concentrations in the single-drug experiments.
Compound IV, BHAP and TSAO-m^3 T were added to HIV-1-infected CEM cell cultures at 0.04, 0.10 and 0.25 ug/ml (Compound IV and BHAP) or 1.0, 2.5 and 5.0 μg/ml (TSAO-m^3 T). In addition, various double- and triple-drug combinations of Compound IV, BHAP and TSAO-m^3 T were performed, combining these inhibitors at their lowest (0.04 μg/ml) or intermediary (0.1 μg/ml) concentration as used in the single-drug experiments.

SMILES: Cc1cn([C@@H]2O[C@H](CO[Si](C)(C)C(C)(C)C)[C@@]3(OS(=O)(=O)C=C3N)[C@H]2O[Si](C)(C)C(C)(C)C)c(=O)n(C)c1=O [TSAO-m^3 T]
- HIV-1-induced syncytium formation in CEM cells (single drug 1.0 μg/ml, day 4 post infection): 0 percentage of control
- HIV-1-induced syncytium formation in CEM cells (single drug 1.0 μg/ml, day 7 post infection): 0 percentage of control
- HIV-1-induced syncytium formation in CEM cells (single drug 1.0 μg/ml, day 11 post infection): 0 percentage of control
- HIV-1-induced syncytium formation in CEM cells (single drug 1.0 μg/ml, day 14 post infection): 12.5 percentage of control
- HIV-1-induced syncytium formation in CEM cells (single drug 1.0 μg/ml, day 18 post infection): 75 percentage of control
- HIV-1-induced syncytium formation in CEM cells (single drug 1.0 μg/ml, day 21 post infection): 100 percentage of control
- HIV-1-induced syncytium formation in CEM cells (single drug 1.0 μg/ml, day 25 post infection): 100 percentage of control
- HIV-1-induced syncytium formation in CEM cells (single drug 1.0 μg/ml, day 28 post infection): 100 percentage of control
- HIV-1-induced syncytium formation in CEM cells (single drug 1.0 μg/ml, day 32 post infection): 100 percentage of control
- HIV-1-induced syncytium formation in CEM cells (single drug 1.0 μg/ml, day 35 post infection): 100 percentage of control
- HIV-1-induced syncytium formation in CEM cells (single drug 1.0 μg/ml, day 39 post infection): 100 percentage of control
- HIV-1-induced syncytium formation in CEM cells (single drug 1.0 μg/ml, day 42 post infection): 100 percentage of control
- HIV-1-induced syncytium formation in CEM cells (single drug 1.0 μg/ml, day 46 post infection): 100 percentage of control
- HIV-1-induced syncytium formation in CEM cells (single drug 1.0 μg/ml, day 49 post infection): 100 percentage of control
- HIV-1-induced syncytium formation in CEM cells (single drug 1.0 μg/ml, day 53 post infection): 100 percentage of control
- HIV-1-induced syncytium formation in CEM cells (single drug 1.0 μg/ml, day 56 post infection): 100 percentage of control
- HIV-1-induced syncytium formation in CEM cells (single drug 1.0 μg/ml, day 60 post infection): 100 percentage of control
- HIV-1-induced syncytium formation in CEM cells (single drug 1.0 μg/ml, day 64 post infection): 100 percentage of control
- HIV-1-induced syncytium formation in CEM cells (single drug 1.0 μg/ml, day 67 post infection): 100 percentage of control
- HIV-1-induced syncytium formation in CEM cells (single drug 1.0 μg/ml, day 71 post infection): 100 percentage of control
- HIV-1-induced syncytium formation in CEM cells (single drug 1.0 μg/ml, day 74 post infection): 100 percentage of control
- HIV-1-induced syncytium formation in CEM cells (single drug 1.0 μg/ml, day 77 post infection): 100 percentage of control
- HIV-1-induced syncytium formation in CEM cells (single drug 2.5 μg/ml, day 4 post infection): 0 percentage of control
- HIV-1-induced syncytium formation in CEM cells (single drug 2.5 μg/ml, day 7 post infection): 0 percentage of control
- HIV-1-induced syncytium formation in CEM cells (single drug 2.5 μg/ml, day 11 post infection): 0 percentage of control
- HIV-1-induced syncytium formation in CEM cells (single drug 2.5 μg/ml, day 14 post infection): 12.5 percentage of control
- HIV-1-induced syncytium formation in CEM cells (single drug 2.5 μg/ml, day 18 post infection): 75 percentage of control
- HIV-1-induced syncytium formation in CEM cells (single drug 2.5 μg/ml, day 21 post infection): 100 percentage of control
- HIV-1-induced syncytium formation in CEM cells (single drug 2.5 μg/ml, day 25 post infection): 100 percentage of control
- HIV-1-induced syncytium formation in CEM cells (single drug 2.5 μg/ml, day 28 post infection): 100 percentage of control
- HIV-1-induced syncytium formation in CEM cells (single drug 2.5 μg/ml, day 32 post infection): 100 percentage of control
- HIV-1-induced syncytium formation in CEM cells (single drug 2.5 μg/ml, day 35 post infection): 100 percentage of control
- HIV-1-induced syncytium formation in CEM cells (single drug 2.5 μg/ml, day 39 post infection): 100 percentage of control
- HIV-1-induced syncytium formation in CEM cells (single drug 2.5 μg/ml, day 42 post infection): 100 percentage of control
- HIV-1-induced syncytium formation in CEM cells (single drug 2.5 μg/ml, day 46 post infection): 100 percentage of control
- HIV-1-induced syncytium formation in CEM cells (single drug 2.5 μg/ml, day 49 post infection): 100 percentage of control
- HIV-1-induced syncytium formation in CEM cells (single drug 2.5 μg/ml, day 53 post infection): 100 percentage of control
- HIV-1-induced syncytium formation in CEM cells (single drug 2.5 μg/ml, day 56 post infection): 100 percentage of control
- HIV-1-induced syncytium formation in CEM cells (single drug 2.5 μg/ml, day 60 post infection): 100 percentage of control
- HIV-1-induced syncytium formation in CEM cells (single drug 2.5 μg/ml, day 64 post infection): 100 percentage of control
- HIV-1-induced syncytium formation in CEM cells (single drug 2.5 μg/ml, day 67 post infection): 100 percentage of control
- HIV-1-induced syncytium formation in CEM cells (single drug 2.5 μg/ml, day 71 post infection): 100 percentage of control
- HIV-1-induced syncytium formation in CEM cells (single drug 2.5 μg/ml, day 74 post infection): 100 percentage of control
- HIV-1-induced syncytium formation in CEM cells (single drug 2.5 μg/ml, day 77 post infection): 100 percentage of control
- HIV-1-induced syncytium formation in CEM cells (single drug 5.0 μg/ml, day 4 post infection): 0 percentage of control
- HIV-1-induced syncytium formation in CEM cells (single drug 5.0 μg/ml, day 7 post infection): 0 percentage of control
- HIV-1-induced syncytium formation in CEM cells (single drug 5.0 μg/ml, day 11 post infection): 0 percentage of control
- HIV-1-induced syncytium formation in CEM cells (single drug 5.0 μg/ml, day 14 post infection): 12.5 percentage of control
- HIV-1-induced syncytium formation in CEM cells (single drug 5.0 μg/ml, day 18 post infection): 75 percentage of control
- HIV-1-induced syncytium formation in CEM cells (single drug 5.0 μg/ml, day 21 post infection): 100 percentage of control
- HIV-1-induced syncytium formation in CEM cells (single drug 5.0 μg/ml, day 25 post infection): 100 percentage of control
- HIV-1-induced syncytium formation in CEM cells (single drug 5.0 μg/ml, day 28 post infection): 100 percentage of control
- HIV-1-induced syncytium formation in CEM cells (single drug 5.0 μg/ml, day 32 post infection): 100 percentage of control
- HIV-1-induced syncytium formation in CEM cells (single drug 5.0 μg/ml, day 35 post infection): 100 percentage of control
- HIV-1-induced syncytium formation in CEM cells (single drug 5.0 μg/ml, day 39 post infection): 100 percentage of control
- HIV-1-induced syncytium formation in CEM cells (single drug 5.0 μg/ml, day 42 post infection): 100 percentage of control
- HIV-1-induced syncytium formation in CEM cells (single drug 5.0 μg/ml, day 46 post infection): 100 percentage of control
- HIV-1-induced syncytium formation in CEM cells (single drug 5.0 μg/ml, day 49 post infection): 100 percentage of control
- HIV-1-induced syncytium formation in CEM cells (single drug 5.0 μg/ml, day 53 post infection): 100 percentage of control
- HIV-1-induced syncytium formation in CEM cells (single drug 5.0 μg/ml, day 56 post infection): 100 percentage of control
- HIV-1-induced syncytium formation in CEM cells (single drug 5.0 μg/ml, day 60 post infection): 100 percentage of control
- HIV-1-induced syncytium formation in CEM cells (single drug 5.0 μg/ml, day 64 post infection): 100 percentage of control
- HIV-1-induced syncytium formation in CEM cells (single drug 5.0 μg/ml, day 67 post infection): 100 percentage of control
- HIV-1-induced syncytium formation in CEM cells (single drug 5.0 μg/ml, day 71 post infection): 100 percentage of control
- HIV-1-induced syncytium formation in CEM cells (single drug 5.0 μg/ml, day 74 post infection): 100 percentage of control
- HIV-1-induced syncytium formation in CEM cells (single drug 5.0 μg/ml, day 77 post infection): 100 percentage of control
- virus breakthrough delayed till day (single drug, higher concentrations): 14 days
